Entries after “also recorded” stand apart in the source; their conditions may differ.
Columns and labels:
[1] = test system: T2 cells; assay: In vitro cytotoxicity assay against T2 cells (LDH release); format: cell-based; conditions: peptide-pulsed T2 cells 1×10^5/well, effector:target 10:1, 20:1, 40:1, 37° C, 5 hours, 3 independent experiments
Protocol: T2 cell is (transporter associated with antigen processing, TAP) deficient cell line. When T2 cell is cultured with different epitopes, the HLA-A0201 molecule on surface of T2 cell will bind to different epitopes, the epitope-HLA-A0201 complex can be recognized by epitope-specific T cells and corresponding T2 cell will be lysed. In order to determine the cytotoxic activity of epitope-specific T cells, we measured LDH release based on the instructions of a non-radioactive cytotoxicity assay kit (Promega, USA). Epitope-specific T cells served as effector cells, and T2 cells loaded with or without each peptide served as target cells. The ratios of effector cells versus target cells were set to 10:1, 20:1 and 40:1. The effector cells were co-cultured with target cells (1×10^5/well) at 37° C for 5 hours, and LDH release was measured.

[2] = test system: HepG2.2.15 cells; assay: In vitro cytotoxicity assay against HepG2.2.15 cells (LDH release); format: cell-based; conditions: effector:target 20:1, 37° C, 12 hours, versus PBS-induced control, 3 independent experiments
Protocol: In order to determine the antiviral abilities of epitope-specific T-cells, we detect the cytotoxicity of epitope-specific T cells against HepG2.2.15 cell. […] The ratios of epitope-specific T-cells versus HepG2.2.15 cells were set to 5:1, 10:1, 20:1. The effector cells and target cells were incubated together in 96-well plates at 37° C for 12 hours, and each well was added to total volume of 200 ul. The cytotoxicity activity of epitope-specific T-cells was evaluated based on LDH release using a non-radio-active cytotoxicity assay kit (Promega, US). The percentage of lysis was calculated as formula: (experimental release- target cell spontaneous release- effector cell spontaneous release)/(target cell maximum release- target cell spontaneous release).

[3] = test system: HBV-DNA; assay: HBV gene expression assay: HBV-DNA (real-time fluorescence quantitative PCR); format: cell-based, Hepatitis B virus; conditions: co-culture with HepG2.2.15 cells, effector:target 10:1, 72 hours, supernatant quantitative PCR; versus PBS group; 3 independent experiments
Protocol: (§1) To validate the ability of epitopes to induce and stimulate the epitope-specific T cells, we used PBMCs from the blood of healthy donors. […] PBMCs were obtained through centrifugation at a Ficoll-Paque density gradient and suspended in RPMI-1640 medium supplemented with 10% fetal bovine serum (FBS), 100 U/ml penicillin and 100 μM streptomycin. PBMCs were stained by FITC-conjugated anti-HLA-A2 mAb and analyzed by flow cytometry. HLA-A0201-positive PBMCs were used for the expansion of epitope-specific T cells. PBMCs were cultured with each peptide (50 μM) and recombinant interleukin 2 (100 U/ml; Sigma, USA). Half of the culture medium was replaced with fresh RPMI-1640 medium every 3 or 4 days. […]
(§2) The antiviral abilities of epitopes were also determined by HBV gene expression assay. […] The HBsAg concentration was detected by enzyme-linked immunosorbent assay (ELISA) according to the manufacturer’s protocol (Shanghai Siic Kehua Biotech Co., Ltd.). And the HBV-DNA concentration was detected by real-time fluorescence quantitative PCR according to the manufacturer’s protocol (Yaneng Bioscience (Shenzhen) Co., Ltd.). […] The inhibition ratios of HBsAg and HBV-DNA were calculated as the formula: (1- experimental group/ control group)×100%.

[4] = test system: epitope-specific T cells from PBMCs of healthy donors; assay: In vitro human IFN-γ ELISPOT assay of epitope-specific T cells; format: cell-based; conditions: HLA-A0201-positive PBMCs of healthy donors cultured with peptide 50 μM and IL-2 100 U/ml, day 20; T cells 5x10^5/ml; versus PBS-induced control; 3 independent experiments
Protocol: In order to measure the ability of epitope-specific T cells to produce IFN-γ, the ELISPOT assay was performed according to the instructions of the kit (Invitrogen, Carlsbad, CA, USA). Epitope-specific T cells(5x10^5/ml) were added to plates. An automated ELISPOT plate reader was used to quantify IFN-γ release by counting the number of spots present.

[5] = test system: HBsAg; conditions: co-culture with HepG2.2.15 cells, effector:target 10:1, 72 hours, supernatant ELISA; versus PBS group; 3 independent experiments
Protocol: as §1, §2

[6] = biological target: T1, HLA-A0201 molecule (Homo sapiens, UniProt P04439, D140Y/D185E/D98H/E176V/E277Q/G131W/G231S/I119V/I121R/I166T/I218V/L300P/L318F/N151K/N90K/P208A/P217A/Q86G/Q94H/R138H/R169H/T345S); assay: Peptide binding assay on T2 cells (HLA-A0201, flow cytometry); conditions: T2 cells 1×10^6/well, peptide 100 μM, 18 hours, 37° C; FITC anti-HLA-A2 mAb BB7.2, flow cytometry; FI = (MFI peptide - background MFI)/background MFI; FI > 1 = high affinity; one representative of 3 independent experiments
T1 construct: endogenous in cells; host or cells: T2 cells (TAP-deficient human cell line)
Protocol: To analyze the binding affinity between epitopes and the HLA-A0201 molecule, we performed a peptide binding assay according to our previous study [18]. Briefly, T2 cells (1×10^6/well) were incubated with peptides (100 μM) in 24-well plates for 18 hours at 37° C. T2 cells without peptides served as a background control. After being washed with phosphate buffer saline (PBS) three times, cells were stained with FITC-conjugated anti-HLA-A2 mAb BB7.2 and analyzed using a BD AccuriC6 flow cytometer (Becton Dickinson, Mountain View, CA, USA). The mean fluorescence index (MFI) was recorded [43]. We calculated the fluorescence index (FI) as follows: FI = (MFI with individual peptides - background MFI)/(background MFI).

| Sequence | Cytotoxic activity of epitope-specific T cells toward T2 cells (in words) [1] | Cytotoxic activity of epitope-specific T cells against HepG2.2.15 cells (in words) [2] | Elimination of HBV-DNA by epitope-specific T cells (in words) [3] | IFN-γ secretion of epitope-specific T cells (ELISPOT, in words) [4] | Inhibition of HBsAg expression by epitope-specific T cells (in words) [5] | Fluorescence index (FI) [6] |
| --- | --- | --- | --- | --- | --- | --- |
| GLLGFAAPF | higher cytotoxic activity toward T2 cells compared to T cells stimulated by other epitopes | higher cytotoxic activities against HepG2.2.15 cells compared to control group (P<0.05) | higher abilities to eliminate HBV-DNA compared to the PBS group (P<0.05) | more IFN-γ secretion than was measured in control (P<0.05) | higher activities to inhibit the expression of HBsAg compared to the PBS group (P<0.05) | – |
| HLPDRVHFA | – | – | – | – | – | 0.2920 |
| HLYSHPIIL | higher cytotoxic activity toward T2 cells compared to T cells stimulated by other epitopes | higher cytotoxic activities against HepG2.2.15 cells compared to control group (P<0.05) | higher abilities to eliminate HBV-DNA compared to the PBS group (P<0.05) | more IFN-γ secretion than was measured in control (P<0.05) | higher activities to inhibit the expression of HBsAg compared to the PBS group (P<0.05) | – |
| RVTGGVFLV | lesser ability to induce epitope-specific T cells | higher cytotoxic activities against HepG2.2.15 cells compared to control group (P<0.05); also recorded: obvious weaker than the other two epitopes | – | lesser ability to induce epitope-specific T cells | – | – |
| YVIGSWGTL | – | – | – | – | – | 0.8953 |

Reference: paper PMC8202855, “Identification of novel hepatitis B virus therapeutic vaccine candidates derived from polymerase protein” (Aging (Albany NY), 2021)
